The source of these data is patent US20100016275A1, “NOVEL COMPOUND 395” (priority 2008, published 2010).

As usually defined, the melting point is the temperature of the solid-liquid transition.

Each structure is given as a SMILES string.

One data set relates to human hepatocytes. Briefly: Human hepatic intrinsic clearance (CLint) assay in human hepatocytes. It counts as in vitro ADME. To be noted: human hepatocytes, protein free suspension buffer, pH 7.4, 37° C. The text has this:
The hepatic metabolic component of human clearance is predicted from scaled in vitro intrinsic clearance (CLint) data from human hepatocytes (see Chem Biol Interact. 2007, 168(1), 2-15) and from the extent of human blood binding, primarily due to plasma protein binding. The well stirred model of the liver is a model for predicting blood clearance in the liver from intrinsic clearance (CLint) determined using hepatocytes. (see Drug Metab Dispos. 2005, 33(9), 1304-11) The model is usually written as:
Human Hepatic Intrinsic Clearance (CLint) Assay
For the majority of drugs, a large component of their plasma clearance is contributed by hepatic metabolism. Intrinsic clearance (CLint) is a measure of the potential of a compound to undergo metabolism and can be related to hepatic clearance in vivo from a consideration of plasma protein binding and liver blood flow. Therefore, CLint may be used as an index of the relative metabolic stability of compounds within a project and compared with other external probe substrates. Furthermore, the measurement of CLint in vitro within a research project, where hepatic metabolic clearance is known to be an issue, may be a useful means of understanding the different pharmacokinetic behaviour of the compounds in vivo.
This following description outlines a method for estimating intrinsic clearance (CLint) from human hepatocyte incubations using suspension buffer containing no HSA (human serum albumin) and maintaining physiological conditions of pH 7.4.
Hepatocytes were prepared by a two-step in situ collagenase perfusion method of a portion of the human liver, suspended in protein free buffer (see below) and stored on ice, prior to incubation.
This method is based on the procedure of Seglen (Preparation of rat liver cells. I. Effect of Ca^2+ on enzymatic dispersion of isolated, perfused liver. Exptl. Cell Res., 1972, 74, p450 and preparation of isolated rat liver cells. Methods Cell Biol., 1976, 13, p 29) which itself was developed from the one step procedure of Berry and Friend (High-yield preparation of isolated rat liver parenchymal cells. J. Cell Biol., 1969, 43, p 506).
Suspension medium: 2.34 g Na HEPES, 2.0 g HSA fraction V, 0.4 g D-fructose, DMEM (1 L powder equivalent, Sigma; w/1 g.1^−1 glucose, w/Na pyruvate, w/o NaHCO3, w/o phenol red), made up to 1 L with Milli-Q water, pH to 7.4 with 1 M HCl. (Protein free suspension buffer is made omitting the 2.0 g HSA fraction V)
The capsule of a liver which has been perfused with digestion medium was cut open and the cells gently teased out into the medium. The cells were then passed through a mesh (approximately 250 μM) into a beaker containing 50 ml suspension medium. The mesh was rinsed through into the beaker with further suspension buffer to a final volume of 100 ml. The suspension was divided between two plastic 50 mL centrifuge tubes (pre-cooled on ice) and centrifuged at 50×g for 2 min at 4° C. The supernatants were decanted and the pellets re-suspended in protein free suspension buffer to the original volume. The centrifugation step was repeated and each pellet re-suspended in approximately 10 ml protein free suspension buffer. The suspensions were combined and the volume made up to 50 mL with protein free suspension buffer.
An aliquot of cell suspension (0.2 mL) was diluted with 0.2 ml protein free suspension buffer. To the diluted cells was added 0.2 mL trypan blue solution (0.4% w/v) followed by gentle mixing. After 1 min, a pasteur pipette was used to withdraw a sample and fill an Improved Neubauer Counting Chamber by capillary action. The cells were then counted (central square only) using an inverted microscope, viable cells being able to exclude the dye and non-viable cells being stained. The percentage of viable cells in the preparation was calculated thus: […]

`Cc1ccc(CSc2nc(N[C@H](C)CO)cc(NS(=O)(=O)N3CCC3)n2)c(F)c1C` [Example 42]: the “Human hepatocyte Intrinsic-clearance assay CLint” value with human hepatocytes was found to be 17 μL/min/10^6 cells.

With `C[C@@H](Nc1cc(NS(=O)(=O)N2CCC2)nc(SCc2cccc(F)c2F)n1)[C@@H](O)CO` [Example 1, N-(2-[(2,3-difluorobenzyl)thio]-6-{[(1R,2R)-2,3-dihydroxy-1-methylpropyl]amino}pyrimidin-4-yl)azetidine-1-sulfonamide], the melting point was in the range of 116 to 116.5 °C.
